Test results taken from ChEMBL document CHEMBL3872277, “1-Heteroarylpropan-2-ones as inhibitors of fatty acid amide hydrolase: Studies on structure-activity relationships and metabolic stability” (Bioorg Med Chem, 2017).
pIC50: −log10 of the molar value. In brackets after ≈: the same amount, converted by molar mass.

Legend:
[1] = Inhibition of pig platelet cytosolic phospholipase A2alpha using 1-stearoyl-2-arachidonoyl-sn-glycero-3-phosphocholine/1,2-dioleoyl-sn-glycerol as substrate after 60 mins by reversed phase HPLC-UV detection analysis; design: species or system Sus scrofa
[2] = Metabolic stability in rat liver S9 fraction assessed as amount of parent compound remaining after 30 mins under aerobic conditions in presence of NADPH by reversed HPLC -UV detection analysis; type: ADME, subcellular; conditions: for remaining at 0.5 h: liver S9 fraction, read-out: Stability; for Stability: s9, 0.5 h
[3] = Thermodynamic aqueous solubility of the compound at pH 7.4 at 20 degC sonicated for 10 mins after 24 hrs UV-HPLC analysis; type: physicochemical; conditions: read-out: Therm_solubility
[4] = molecular target: T1, Fatty-acid amide hydrolase 1 (Rattus norvegicus, UniProt P97612); assay: Inhibition of FAAH in rat brain microsomes using N-(2-hydroxyethyl)-4-pyren-1-ylbutanamide as substrate after 60 mins by fluorescence-based reversed phase HPLC analysis
T1 sequence (P97612 whole entry): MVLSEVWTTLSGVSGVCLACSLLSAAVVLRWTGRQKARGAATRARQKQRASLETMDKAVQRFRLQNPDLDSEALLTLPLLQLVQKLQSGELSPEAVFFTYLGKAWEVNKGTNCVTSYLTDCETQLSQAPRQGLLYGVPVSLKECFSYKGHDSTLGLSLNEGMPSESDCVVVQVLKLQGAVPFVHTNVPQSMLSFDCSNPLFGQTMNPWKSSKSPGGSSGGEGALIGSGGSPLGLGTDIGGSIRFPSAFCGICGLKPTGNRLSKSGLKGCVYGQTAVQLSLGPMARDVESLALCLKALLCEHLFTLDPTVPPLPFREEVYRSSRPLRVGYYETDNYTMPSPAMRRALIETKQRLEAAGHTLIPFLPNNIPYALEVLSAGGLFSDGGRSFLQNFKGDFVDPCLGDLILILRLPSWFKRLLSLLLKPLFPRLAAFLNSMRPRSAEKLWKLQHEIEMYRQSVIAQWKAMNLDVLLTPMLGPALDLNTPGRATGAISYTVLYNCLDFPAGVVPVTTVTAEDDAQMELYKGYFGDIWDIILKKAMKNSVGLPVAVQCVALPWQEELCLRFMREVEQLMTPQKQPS

[5] = Ratio of IC50 for pig platelet cytosolic phospholipase A2alpha to IC50 for FAAH in rat brain microsomes
[6] = Drug metabolism in rat liver S9 fraction assessed as hydroxylation product metabolite formation after 30 mins under aerobic conditions in presence of NADPH by reversed HPLC/MS analysis; type: ADME, subcellular; conditions: s9, 0.5 h
[7] = Drug metabolism in rat liver S9 fraction assessed as alcohol derivative metabolite formation after 30 mins under aerobic conditions in presence of NADPH by reversed HPLC/MS analysis; type: ADME, subcellular; conditions: s9, 0.5 h

| Compound | remaining at 0.5 h [2] | pIC50 [4] | other results |
| --- | --- | --- | --- |
| CCCCCCCCc1ccc(OCC(=O)Cn2cnc3cccnc32)cc1 |  | 6.39 |  |
| CCCCCCCCc1ccc(OCC(=O)Cn2cnc3ncccc32)cc1 |  | 6.21 |  |
| CCCCCCCCc1ccc(OCC(=O)Cn2cccn2)cc1 |  | 6.08 |  |
| CCCCCCCCc1ccc(OCC(=O)Cn2cncn2)cc1 |  | 7.28 |  |
| O=C1NC(=O)C(c2ccccc2)(c2ccccc2)N1 [PHENYTOIN] |  |  | solubility thermodynamic at 24 h [3]: 18 µg/mL (≈ 71.4 µM) |
| CCCCCCCCc1ccc(OCC(=O)Cn2ncc3ncccc32)cc1 |  | 7.03 |  |
| CCCCCCCCc1ccc(OCC(=O)Cn2nnc3ncccc32)cc1 |  | 7.31 |  |
| CCCCCCCCc1ccc(OCC(=O)Cn2ccc3ncccc32)cc1 |  | < 5.00 |  |
| CCCCCCCCCCOc1ccc(OCC(=O)COc2ccc(C(=O)O)cc2)cc1 |  |  | pIC50 [1]: 8.19 |
| CCCCCCCCc1ccc(OCC(=O)Cn2ccnc2)cc1 |  | 6.39 |  |
| CCCCCCCCc1ccc(OCC(=O)Cn2nccn2)cc1 |  | 7.00 |  |
| CCCCCCCCc1ccc(OCC(=O)Cn2nnc3cccnc32)cc1 |  | 7.89 |  |
| CCCCCCCCc1ccc(OCC(=O)Cn2ncc3cccnc32)cc1 |  | 5.80 |  |

The next lines start with results.

| remaining at 0.5 h [2] | pIC50 [4] | Compound | other results |
| --- | --- | --- | --- |
| 23% | 7.89 | CC(Oc1ccc(-c2ccccc2)cc1)C(=O)Cn1nnc2ccccc21 (stereo unspecified) | pIC50 [1]: 5.17; solubility thermodynamic at 24 h [3]: < 1 µg/mL; Ratio IC50 [5]: 100 to 500 |
|  | 7.96 | O=C(COc1ccc(-c2cccc(Cl)c2)cc1)Cn1nnc2ccccc21 | Stability [2]: Unstable |
| 51% | 5.74 | CCC(Oc1ccc(-c2ccccc2)cc1)C(=O)Cn1nnc2ccccc21 (stereo unspecified) | Drug metabolism [6]: Metabolite_Notdetected |
| 21% | 6.20 | CC(C(=O)COc1ccc(-c2ccccc2)cc1)n1nnc2ccccc21 (stereo unspecified) |  |
|  | 7.82 | CCCCCCCCc1ccc(OCC(=O)Cn2nnc3ccccc32)cc1 |  |
| 0% | 8.05 | CC(Oc1ccc(-c2ccccc2)cc1)C(=O)Cn1ncnn1 (stereo unspecified) | pIC50 [1]: 5.48; solubility thermodynamic at 24 h [3]: 2 µg/mL (≈ 6.49 µM); Ratio IC50 [5]: 100 to 500 |
| 0% | 7.92 | O=C(COc1ccc(-c2ccccc2)cc1)Cn1nnc2ccccc21 | pIC50 [1]: 5.62; solubility thermodynamic at 24 h [3]: 2 µg/mL (≈ 5.82 µM); Drug metabolism [7]: Metabolite_Detected; Ratio IC50 [5]: 100 to 500 |
|  | 7.85 | O=C(COc1ccc(-c2cccc(F)c2)cc1)Cn1nnc2ccccc21 | Stability [2]: Unstable |
| 9% | 7.72 | CC(Oc1ccc(-c2ccccc2)cc1)C(=O)Cn1cnnn1 (stereo unspecified) | pIC50 [1]: 5.16; solubility thermodynamic at 24 h [3]: 4 µg/mL (≈ 13 µM); Ratio IC50 [5]: 100 to 500 |
| 0% | 5.20 | CC(C(=O)COc1ccc(-c2ccccc2)cc1)n1ncnn1 (stereo unspecified) |  |
|  | 7.92 | O=C(COc1ccc(-c2ccc(F)cc2)cc1)Cn1nnc2ccccc21 | Stability [2]: Unstable |
| 11% | < 5.00 | CC(C(=O)COc1ccc(-c2ccccc2)cc1)n1cnnn1 (stereo unspecified) |  |
| 0% | 7.96 | O=C(COc1ccc(-c2ccccc2)cc1)Cn1ncnn1 | pIC50 [1]: 5.74; solubility thermodynamic at 24 h [3]: 10 µg/mL (≈ 34 µM); Ratio IC50 [5]: 100 to 500 |
|  | 7.68 | O=C(COc1ccc(-c2ccc(Cl)cc2)cc1)Cn1nnc2ccccc21 | Stability [2]: Unstable |
| 0% | 7.37 | O=C(COc1ccc(-c2ccccc2)cc1)Cn1cnnn1 | pIC50 [1]: 5.31; solubility thermodynamic at 24 h [3]: 11 µg/mL (≈ 37.4 µM); Ratio IC50 [5]: 100 to 500 |
|  | 6.32 | CCCCCCCCc1ccc(OCC(=O)Cn2cnc3ccccc32)cc1 |  |
| 29% | 7.92 | CC(Oc1ccc(-c2ccc(F)cc2)cc1)C(=O)Cn1nnc2ccccc21 (stereo unspecified) |  |
|  | 5.64 | CCCCCCCCc1ccc(OCC(=O)Cn2ncc3ccccc32)cc1 |  |
